According to ChEMBL document CHEMBL5465560, “Selectivity Literature for EUbOPEN Chemogenomic Library” (2024):

Tests used:
[1] = target: Serine/threonine-protein kinase 24 (Homo sapiens) (UniProt Q9Y6E0); experiment: Selectivity interaction (KinomeScan (DiscoverX)) EUB0000229b STK24; settings: at 10 µM
[2] = Selectivity interaction (KinomeScan (DiscoverX)) EUB0000229b PKNB; settings: at 1 µM
[3] = system: Serine/threonine-protein kinase B-raf (Homo sapiens), P15056 [V600E]; experiment: (§1) Selectivity interaction (Kinase panel (Z-LYTE Assay)) EUB0001632a BRAF; settings: at 10 µM
Chain of Serine/threonine-protein kinase B-raf (Homo sapiens), P15056 [V600E] (P15056 whole entry V600E): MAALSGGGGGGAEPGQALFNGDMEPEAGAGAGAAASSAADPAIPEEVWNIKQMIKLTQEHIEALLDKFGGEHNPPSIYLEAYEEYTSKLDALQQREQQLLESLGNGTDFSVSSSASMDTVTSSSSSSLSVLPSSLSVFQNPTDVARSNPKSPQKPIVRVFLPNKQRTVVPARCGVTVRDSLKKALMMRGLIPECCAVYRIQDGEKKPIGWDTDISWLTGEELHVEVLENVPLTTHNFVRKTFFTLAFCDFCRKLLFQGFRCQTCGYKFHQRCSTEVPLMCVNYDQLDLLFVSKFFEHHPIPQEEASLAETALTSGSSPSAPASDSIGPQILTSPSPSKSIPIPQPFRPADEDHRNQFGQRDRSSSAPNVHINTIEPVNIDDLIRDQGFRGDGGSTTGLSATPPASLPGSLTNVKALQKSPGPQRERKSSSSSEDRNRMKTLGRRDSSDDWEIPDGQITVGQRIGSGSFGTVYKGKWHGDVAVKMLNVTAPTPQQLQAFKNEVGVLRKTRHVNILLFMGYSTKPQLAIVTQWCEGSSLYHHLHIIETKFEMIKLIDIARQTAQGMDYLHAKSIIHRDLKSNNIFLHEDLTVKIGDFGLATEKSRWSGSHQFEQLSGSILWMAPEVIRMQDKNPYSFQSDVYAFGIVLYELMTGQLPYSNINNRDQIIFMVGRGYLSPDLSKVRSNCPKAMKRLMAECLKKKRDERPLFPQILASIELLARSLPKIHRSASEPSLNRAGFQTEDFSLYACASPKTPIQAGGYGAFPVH

[4] = target: Serine/threonine-protein kinase B-raf (Homo sapiens) (UniProt P15056); experiment: as §1; settings: at 10 µM
Chain of Serine/threonine-protein kinase B-raf (Homo sapiens) (P15056 whole entry): as the sequence (P15056 whole entry V600E) above, with E600V counted along it

[5] = target: T1, Proto-oncogene tyrosine-protein kinase Src (Homo sapiens, UniProt P12931); experiment: Selectivity interaction (KinomeScan (DiscoverX)) EUB0000666a SRC; settings: at 10 µM
T1 sequence (P12931 2-536 limits assumed): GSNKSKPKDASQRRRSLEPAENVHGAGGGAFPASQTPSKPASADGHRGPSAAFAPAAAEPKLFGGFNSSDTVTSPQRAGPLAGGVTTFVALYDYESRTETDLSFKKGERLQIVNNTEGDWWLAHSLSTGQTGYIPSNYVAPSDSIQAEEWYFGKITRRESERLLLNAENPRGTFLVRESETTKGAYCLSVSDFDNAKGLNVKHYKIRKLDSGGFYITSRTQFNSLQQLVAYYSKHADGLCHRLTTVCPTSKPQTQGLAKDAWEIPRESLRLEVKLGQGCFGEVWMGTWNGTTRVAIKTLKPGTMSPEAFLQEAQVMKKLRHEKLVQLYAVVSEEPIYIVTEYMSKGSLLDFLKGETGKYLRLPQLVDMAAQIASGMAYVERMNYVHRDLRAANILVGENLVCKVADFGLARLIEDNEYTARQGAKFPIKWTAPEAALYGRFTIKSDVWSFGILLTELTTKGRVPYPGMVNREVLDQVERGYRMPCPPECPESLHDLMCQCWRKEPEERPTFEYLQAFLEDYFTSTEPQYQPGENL

[6] = target: T2, Tyrosine-protein kinase JAK3 (Homo sapiens) (UniProt P52333); experiment: Selectivity interaction (KinomeScan (DiscoverX)) EUB0000666a JAK3; settings: at 10 µM
T2 sequence (whole entry): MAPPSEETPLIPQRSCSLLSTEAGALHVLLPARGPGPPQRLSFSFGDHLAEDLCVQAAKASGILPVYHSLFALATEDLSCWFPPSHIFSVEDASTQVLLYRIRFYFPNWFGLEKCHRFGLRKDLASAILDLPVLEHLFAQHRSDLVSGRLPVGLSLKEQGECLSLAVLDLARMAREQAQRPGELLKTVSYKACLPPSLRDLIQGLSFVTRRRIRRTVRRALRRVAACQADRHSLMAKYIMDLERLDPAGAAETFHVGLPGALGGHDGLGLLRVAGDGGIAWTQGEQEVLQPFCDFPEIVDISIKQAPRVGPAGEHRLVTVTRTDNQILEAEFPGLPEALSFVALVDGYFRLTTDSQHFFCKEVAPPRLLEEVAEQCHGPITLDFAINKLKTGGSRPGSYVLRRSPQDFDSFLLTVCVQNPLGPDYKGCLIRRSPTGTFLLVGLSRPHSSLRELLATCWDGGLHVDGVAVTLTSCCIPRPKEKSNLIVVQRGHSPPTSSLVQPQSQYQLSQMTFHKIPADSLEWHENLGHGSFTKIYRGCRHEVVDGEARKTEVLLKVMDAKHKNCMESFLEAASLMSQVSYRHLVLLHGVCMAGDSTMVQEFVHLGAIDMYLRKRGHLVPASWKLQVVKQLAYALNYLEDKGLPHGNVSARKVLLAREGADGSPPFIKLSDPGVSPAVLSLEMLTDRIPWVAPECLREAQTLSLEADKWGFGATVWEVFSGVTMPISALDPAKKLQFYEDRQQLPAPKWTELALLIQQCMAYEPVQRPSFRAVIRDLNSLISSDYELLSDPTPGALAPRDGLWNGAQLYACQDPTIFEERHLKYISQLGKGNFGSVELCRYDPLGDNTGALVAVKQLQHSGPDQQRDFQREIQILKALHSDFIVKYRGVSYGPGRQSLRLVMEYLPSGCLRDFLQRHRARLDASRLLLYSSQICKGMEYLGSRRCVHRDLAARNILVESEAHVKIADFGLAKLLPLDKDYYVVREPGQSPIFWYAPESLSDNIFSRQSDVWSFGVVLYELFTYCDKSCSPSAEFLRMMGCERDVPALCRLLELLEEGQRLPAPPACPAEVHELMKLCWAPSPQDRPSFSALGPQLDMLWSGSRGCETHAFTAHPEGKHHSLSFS

[7] = target: Serine/threonine-protein kinase Nek6 (Homo sapiens) (UniProt Q9HC98); experiment: Selectivity interaction (ProQinase) EUB0000171b NEK6
Chain of Serine/threonine-protein kinase Nek6 (Homo sapiens) (Q9HC98 whole entry, canonical isoform): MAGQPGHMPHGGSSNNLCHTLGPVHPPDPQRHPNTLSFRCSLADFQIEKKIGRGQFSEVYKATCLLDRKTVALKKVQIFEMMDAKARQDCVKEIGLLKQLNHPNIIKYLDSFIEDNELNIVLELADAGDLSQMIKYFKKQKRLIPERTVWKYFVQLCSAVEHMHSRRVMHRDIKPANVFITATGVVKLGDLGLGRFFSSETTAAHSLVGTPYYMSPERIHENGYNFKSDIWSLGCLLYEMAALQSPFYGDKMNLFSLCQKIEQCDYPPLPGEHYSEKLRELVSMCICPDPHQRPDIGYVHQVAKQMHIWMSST

[8] = target: Phosphatidylinositol 4,5-bisphosphate 3-kinase catalytic subunit beta isoform (Homo sapiens) (UniProt P42338); experiment: Selectivity interaction (ProQinase) EUB0000171b PIK3CB
Chain of Phosphatidylinositol 4,5-bisphosphate 3-kinase catalytic subunit beta isoform (Homo sapiens) (P42338 whole entry, looked up, canonical isoform): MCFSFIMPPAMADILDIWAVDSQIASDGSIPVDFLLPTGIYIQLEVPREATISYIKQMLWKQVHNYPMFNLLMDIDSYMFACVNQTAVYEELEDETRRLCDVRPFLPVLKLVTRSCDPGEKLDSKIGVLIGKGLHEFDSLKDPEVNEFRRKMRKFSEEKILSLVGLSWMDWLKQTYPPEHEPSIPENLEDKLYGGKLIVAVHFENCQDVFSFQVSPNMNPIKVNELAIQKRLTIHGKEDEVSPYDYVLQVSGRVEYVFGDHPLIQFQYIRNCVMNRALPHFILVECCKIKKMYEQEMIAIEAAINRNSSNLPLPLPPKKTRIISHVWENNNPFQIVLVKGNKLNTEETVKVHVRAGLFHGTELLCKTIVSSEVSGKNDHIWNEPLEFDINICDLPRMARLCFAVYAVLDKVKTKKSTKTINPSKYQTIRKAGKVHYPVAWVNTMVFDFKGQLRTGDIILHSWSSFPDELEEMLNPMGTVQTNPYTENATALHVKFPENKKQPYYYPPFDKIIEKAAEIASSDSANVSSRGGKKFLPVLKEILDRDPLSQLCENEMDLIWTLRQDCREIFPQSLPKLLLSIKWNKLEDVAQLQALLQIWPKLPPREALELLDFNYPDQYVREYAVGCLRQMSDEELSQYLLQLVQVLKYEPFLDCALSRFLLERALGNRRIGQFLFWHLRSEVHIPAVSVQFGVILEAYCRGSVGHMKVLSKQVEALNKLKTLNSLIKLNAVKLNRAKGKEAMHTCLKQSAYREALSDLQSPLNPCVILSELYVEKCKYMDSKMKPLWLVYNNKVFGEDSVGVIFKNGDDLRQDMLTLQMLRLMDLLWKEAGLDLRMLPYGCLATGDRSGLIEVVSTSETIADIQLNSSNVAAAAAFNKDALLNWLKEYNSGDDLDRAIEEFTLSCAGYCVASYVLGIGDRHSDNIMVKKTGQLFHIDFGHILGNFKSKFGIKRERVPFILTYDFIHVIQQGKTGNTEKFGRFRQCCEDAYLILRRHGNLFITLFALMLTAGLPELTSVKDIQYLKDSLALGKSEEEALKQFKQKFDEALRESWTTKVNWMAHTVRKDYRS

[9] = target: Casein kinase I isoform gamma-3 (Homo sapiens) (UniProt Q9Y6M4); experiment: Selectivity interaction (KinomeScan (DiscoverX)) EUB0001619a CSNK1G3; settings: at 1 µM
[10] = target: T1, Proto-oncogene tyrosine-protein kinase Src; experiment: Selectivity interaction (SelectScreen profiling (Invitrogen)) EUB0000607a SRC; settings: at 2 µM
[11] = target: Ribosomal protein S6 kinase alpha-3 (Homo sapiens, UniProt P51812); experiment: Selectivity interaction (ActivX KiNativ screen (kinase selectivity in THP-1 cell lysates)) EUB0000639a RPS6KA3; type: subcellular; settings: lysate, at 0.04 µM
Chain of Ribosomal protein S6 kinase alpha-3 (P51812 whole entry): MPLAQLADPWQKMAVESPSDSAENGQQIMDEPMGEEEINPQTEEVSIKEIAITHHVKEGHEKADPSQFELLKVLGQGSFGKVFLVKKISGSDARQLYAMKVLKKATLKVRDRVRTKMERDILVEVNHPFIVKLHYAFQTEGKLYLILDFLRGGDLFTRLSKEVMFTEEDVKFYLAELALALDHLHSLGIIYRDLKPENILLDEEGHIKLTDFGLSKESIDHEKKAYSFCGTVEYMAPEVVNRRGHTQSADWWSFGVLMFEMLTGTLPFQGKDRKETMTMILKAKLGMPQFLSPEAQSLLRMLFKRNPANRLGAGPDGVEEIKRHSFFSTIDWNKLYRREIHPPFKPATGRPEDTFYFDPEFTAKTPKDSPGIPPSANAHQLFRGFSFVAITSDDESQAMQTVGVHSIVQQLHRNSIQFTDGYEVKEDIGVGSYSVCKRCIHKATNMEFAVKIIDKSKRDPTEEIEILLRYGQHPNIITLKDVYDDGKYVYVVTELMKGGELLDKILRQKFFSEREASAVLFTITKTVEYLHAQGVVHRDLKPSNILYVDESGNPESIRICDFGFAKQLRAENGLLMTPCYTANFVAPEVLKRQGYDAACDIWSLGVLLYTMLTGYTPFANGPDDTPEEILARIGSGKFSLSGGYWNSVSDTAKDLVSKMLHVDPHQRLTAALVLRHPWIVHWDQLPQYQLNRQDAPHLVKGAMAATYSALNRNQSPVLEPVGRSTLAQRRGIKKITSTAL

[12] = target: Maternal embryonic leucine zipper kinase (Homo sapiens) (UniProt Q14680); settings: at 10 µM
Chain of Maternal embryonic leucine zipper kinase (Homo sapiens) (Q14680 whole entry, looked up): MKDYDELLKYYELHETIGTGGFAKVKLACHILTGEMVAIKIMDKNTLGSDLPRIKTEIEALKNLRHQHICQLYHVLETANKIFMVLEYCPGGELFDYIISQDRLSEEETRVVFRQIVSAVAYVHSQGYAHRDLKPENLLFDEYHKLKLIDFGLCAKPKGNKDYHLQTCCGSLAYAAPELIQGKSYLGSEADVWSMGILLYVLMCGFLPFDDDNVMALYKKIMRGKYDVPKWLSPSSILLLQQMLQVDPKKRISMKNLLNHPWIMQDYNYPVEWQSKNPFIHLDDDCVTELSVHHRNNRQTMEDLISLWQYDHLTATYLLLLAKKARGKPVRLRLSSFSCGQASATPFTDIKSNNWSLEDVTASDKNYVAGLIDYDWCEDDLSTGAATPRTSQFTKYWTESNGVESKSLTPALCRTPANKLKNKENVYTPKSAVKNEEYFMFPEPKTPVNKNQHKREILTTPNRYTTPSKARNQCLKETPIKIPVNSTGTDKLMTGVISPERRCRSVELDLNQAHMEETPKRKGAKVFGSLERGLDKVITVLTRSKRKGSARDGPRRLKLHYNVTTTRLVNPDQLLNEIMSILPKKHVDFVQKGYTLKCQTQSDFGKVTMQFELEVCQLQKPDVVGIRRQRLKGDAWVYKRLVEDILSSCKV

[13] = target: T3, Ephrin type-B receptor 1 (Homo sapiens) (UniProt P54762); experiment: Selectivity interaction (KinomeScan (DiscoverX)) EUB0000092b EPHB1; settings: at 10 µM
T3 sequence (whole entry): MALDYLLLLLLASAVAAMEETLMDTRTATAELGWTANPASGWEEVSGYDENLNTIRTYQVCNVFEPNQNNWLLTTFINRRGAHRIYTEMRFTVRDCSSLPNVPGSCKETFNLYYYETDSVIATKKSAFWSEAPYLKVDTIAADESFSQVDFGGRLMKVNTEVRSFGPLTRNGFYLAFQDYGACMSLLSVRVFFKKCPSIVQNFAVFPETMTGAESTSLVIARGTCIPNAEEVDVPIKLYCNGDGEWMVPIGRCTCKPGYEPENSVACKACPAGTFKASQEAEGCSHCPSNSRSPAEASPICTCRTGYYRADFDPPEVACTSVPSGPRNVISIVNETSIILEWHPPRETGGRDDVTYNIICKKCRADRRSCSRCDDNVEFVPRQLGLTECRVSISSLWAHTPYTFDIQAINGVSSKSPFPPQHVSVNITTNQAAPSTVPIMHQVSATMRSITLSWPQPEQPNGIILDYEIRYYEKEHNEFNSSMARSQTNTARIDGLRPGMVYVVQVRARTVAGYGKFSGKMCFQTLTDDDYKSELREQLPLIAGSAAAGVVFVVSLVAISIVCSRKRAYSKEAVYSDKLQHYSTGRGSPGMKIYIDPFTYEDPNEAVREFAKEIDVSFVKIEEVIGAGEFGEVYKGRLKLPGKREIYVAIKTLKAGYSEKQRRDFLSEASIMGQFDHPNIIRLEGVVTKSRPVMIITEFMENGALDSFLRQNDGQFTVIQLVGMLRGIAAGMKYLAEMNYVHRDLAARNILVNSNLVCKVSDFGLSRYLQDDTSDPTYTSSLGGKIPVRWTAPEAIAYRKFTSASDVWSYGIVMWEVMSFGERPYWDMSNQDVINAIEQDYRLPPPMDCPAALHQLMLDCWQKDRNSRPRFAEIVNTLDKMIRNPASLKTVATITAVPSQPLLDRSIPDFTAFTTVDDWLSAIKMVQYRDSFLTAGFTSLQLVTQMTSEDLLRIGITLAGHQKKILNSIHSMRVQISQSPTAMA

Aurora kinase B = Aurora kinase B (Homo sapiens, UniProt Q96GD4); experiment: Selectivity interaction (KinomeScan (DiscoverX)) EUB0000092b AURKB; settings: at 10 µM
Chain of Aurora kinase B (Q96GD4 whole entry): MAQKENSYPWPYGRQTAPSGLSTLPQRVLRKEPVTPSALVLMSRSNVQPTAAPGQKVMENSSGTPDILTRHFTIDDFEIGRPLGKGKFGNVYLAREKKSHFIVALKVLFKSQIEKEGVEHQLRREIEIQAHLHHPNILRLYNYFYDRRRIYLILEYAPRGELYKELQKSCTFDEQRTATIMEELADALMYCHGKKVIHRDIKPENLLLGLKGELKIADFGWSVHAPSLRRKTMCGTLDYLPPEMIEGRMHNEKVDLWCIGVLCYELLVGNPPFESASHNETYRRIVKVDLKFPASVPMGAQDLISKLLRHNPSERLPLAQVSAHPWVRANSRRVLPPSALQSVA

Chain of Serine/threonine-protein kinase 24 (Homo sapiens) (Q9Y6E0 whole entry, looked up): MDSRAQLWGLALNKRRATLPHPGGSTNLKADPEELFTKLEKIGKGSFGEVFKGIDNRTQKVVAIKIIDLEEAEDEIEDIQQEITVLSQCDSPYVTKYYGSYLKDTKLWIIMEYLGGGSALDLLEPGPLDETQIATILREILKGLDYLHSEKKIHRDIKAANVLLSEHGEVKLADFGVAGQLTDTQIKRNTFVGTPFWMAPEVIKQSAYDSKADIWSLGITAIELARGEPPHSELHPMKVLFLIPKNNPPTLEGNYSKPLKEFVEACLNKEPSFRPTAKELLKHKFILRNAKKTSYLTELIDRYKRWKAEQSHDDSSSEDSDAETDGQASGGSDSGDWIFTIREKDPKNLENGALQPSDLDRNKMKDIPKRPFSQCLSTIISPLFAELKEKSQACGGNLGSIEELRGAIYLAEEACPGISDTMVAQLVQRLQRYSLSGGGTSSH

## COc1cc(N(C)c2ccnc3ccc(C(F)(F)F)cc23)cc(OC)c1OC
[1]
  % binding: 95%
[2]
  % binding: 100%

## Cn1cc(-n2cnc3c(NCc4nc5cc(Cl)c(Cl)cc5[nH]4)nc(N4CCOCC4)nc32)cn1
[3]
  % of control: 46.2%
[4]
  % of control: -4.02%

## O=C(NOC[C@H](O)CO)c1ccc(F)c(F)c1Nc1ccc(I)cc1F
[5]
  % of control: 69%
[6]
  % of control: 100%

## C=CC(=O)Nc1cccc(C(=O)Nc2ccc(Nc3cc(-c4[nH]c(SC)nc4C)ccn3)cc2)c1
[7]; at 1 µM
  % of control: 91%
[7]; at 5 µM
  % of control: 92%
[8]; at 1 µM
  % of control: 138%
[8]; at 5 µM
  % of control: 166%

## N#Cc1cccc(-c2c[nH]c3ncnc(N4CCOCC4)c23)c1
[9]
  % of control: 100%

## CNC(=O)Nc1ccc(-c2nc(N3CC4CCC(C3)O4)c3cnn(C4CCC5(CC4)OCCO5)c3n2)cc1
[10]
  % of inhibition: 3%

## CC[C@@H]1[C@H](F)C(=O)N[C@@H]1COc1nccc2cc(C(N)=O)c(OC)cc12 [ZIMLOVISERTIB]
[11]
  % of inhibition: 2.8%

## CCN(CC)CCCCNc1ncc2cc(-c3cc(OC)cc(OC)c3)c(NC(=O)NC(C)(C)C)nc2n1
[12]
  % of control: 100%

## CCC(=O)N1CCN(c2ccc(-n3c(=O)ccc4cnc5ccc(-c6cnc7ccccc7c6)cc5c43)cc2C(F)(F)F)CC1
[13]
  % of control: 100%
Aurora kinase B
  % of control: 82%
